Reference: US20230172204A1 (BASF SE, priority 2020, published 2023)

Assays:
[1] = test system: Phakopsora pachyrhizi (F129L); assay: Protective control of soybean rust on soybeans (PHAKPA P2); format: in vivo; conditions: for PHAKPA (F129L) Disease level (%) P2 at 16 ppm / PHAKPA (F129L) Disease level (%) P2 at 4 ppm: P2 protective, % diseased leaf area; for % PHAKPA (F129L) Disease level P2 at 4 ppm: protective P2, 4 ppm; for % PHAKPA (F129L) Disease level P2 at 4 ppm / % PHAKPA (F129L) Disease level P2 at 16 ppm: soybean rust F129L; for % PHAKPA (F129L) Disease level P2 at 16 ppm: protective P2, 16 ppm
[2] = test system: Phakopsora pachyrhizi (F129L); assay: Protective control of soybean rust on soybeans (PHAKPA P6); format: in vivo; conditions: for % PHAKPA (F129L) Disease level P6 at 4 ppm: protective P6, 4 ppm; for % PHAKPA (F129L) Disease level P6 at 4 ppm / % PHAKPA (F129L) Disease level P6 at 16 ppm: soybean rust F129L; for % PHAKPA (F129L) Disease level P6 at 16 ppm: protective P6, 16 ppm
[3] = P6 protective, % diseased leaf area

Structure (SMILES)	PHAKPA (F129L) Disease level (%) P2 at 16 ppm [1] [%]	% PHAKPA (F129L) Disease level P2 at 4 ppm [1] [%]	% PHAKPA (F129L) Disease level P2 at 16 ppm [1] [%]	PHAKPA (F129L) Disease level (%) P6 at 16 ppm [2, 3] [%]	% PHAKPA (F129L) Disease level P6 at 4 ppm [2] [%]	% PHAKPA (F129L) Disease level P6 at 16 ppm [2] [%]	PHAKPA (F129L) Disease level (%) P2 at 4 ppm [1] [%]	PHAKPA (F129L) Disease level (%) P6 at 4 ppm ([2]; P6 protective, 4 ppm, % diseased leaf area) [%]
CNC(=O)/C(=N/OC)c1cccc(C)c1CO/N=C(\C)c1cccc(C(F)F)c1 [Ex. 12]	3	25	1	9	37	9		
CNC(=O)/C(=N/OC)c1cccc(C)c1CO/N=C(\C)c1ccccc1OC(F)(F)F [compound 184]		42	4		16	1		
CO/N=C(/C(=O)OC)c1cccc(C)c1CO/N=C(\SC)c1cccc(C)c1 [drawing 972, reference compound]				30			60	
CNC(=O)/C(=N/OC)c1cccc(C)c1CO/N=C(\C)c1ccc(/C(C)=N\OC)cc1OC(F)(F)F [compound 415]		47	5		67	11		
CNC(=O)/C(=N/OC)c1cccc(C)c1CO/N=C(\C)c1ccccc1OC [Ex. 126]	32	87	34	60	95	70		
CO/N=C(/C(=O)OC)c1cccc(C)c1CO/N=C(\C)c1cccc(C(C)(F)F)c1 [compound 302]		47	4		47	3		
CO/N=C(/C(=O)OC)c1cccc(C2CC2)c1CO/N=C(\C)c1cccc(C(F)(F)F)c1 [Ex. 10]		22	2		45	3		
CNC(=O)/C(=N/OC)c1cccc(C)c1CO/N=C(/c1ccccc1)C(F)(F)F [compound 458]		93	57		83	50		
CO/N=C(/C(=O)OC)c1ccccc1CO/N=C(\C)c1cccc(C)c1 [reference compound]	93			83				
CNC(=O)/C(=N/OC)c1cccc(C)c1CO/N=C(\C)c1ccc(OC(F)(F)F)cc1OC(F)(F)F [compound 349]		97	50		97	35		
CNC(=O)/C(=N/OC)c1ccccc1CO/N=C(\C)c1ccc(C#N)cc1 [reference compound]	37			63				
CNC(=O)/C(=N/OC)c1cccc(C)c1CO/N=C(\C)c1c(F)cc(Br)cc1OC(F)(F)F [compound 355]		34	7		48	4		
CNC(=O)/C(=N/OC)c1cccc(C)c1CO/N=C(\C)c1ccc(C)cc1 [Ex. 6, (2E)-2-Methoxyimino-N-methyl-2-[3-methyl-2-[[(E)-1-(p-tolyl)ethylideneamino]oxymethyl]phenyl]acetamide]		1	0		19	1	0	23
CO/N=C(/C(=O)OC)c1cccc(C)c1CO/N=C(\C)c1ccc(Cl)c(Cl)c1C(F)(F)F [compound 429]		83	50		67	43		
CNC(=O)/C(=N/OC)c1ccccc1CO/N=C(\C)c1ccc(-c2ccccc2)cc1 [reference compound]	37			28				
CNC(=O)/C(=N/OC)c1cccc(C)c1CO/N=C(\C)c1ccc(OC(F)(F)F)cc1F [compound 270]		3	0		0	1		
CNC(=O)/C(=N/OC)c1cccc(C)c1CO/N=C(\C)c1ccc(-c2ccccc2)cc1 [Ex. 113]	17	25	26	6	41	25		
CNC(=O)/C(=N/OC)c1cccc(C)c1CO/N=C(/c1ccccc1)C(C)C [compound 389]		28	4		43	3		

Structure (SMILES)	PHAKPA (F129L) Disease level (%) P2 at 16 ppm [1] [%]	% PHAKPA (F129L) Disease level P2 at 4 ppm [1] [%]	% PHAKPA (F129L) Disease level P2 at 16 ppm [1] [%]	PHAKPA (F129L) Disease level (%) P6 at 16 ppm [2, 3] [%]	% PHAKPA (F129L) Disease level P6 at 4 ppm [2] [%]	% PHAKPA (F129L) Disease level P6 at 16 ppm [2] [%]	PHAKPA (F129L) Disease level (%) P2 at 4 ppm [1] [%]	PHAKPA (F129L) Disease level (%) P6 at 4 ppm ([2]; P6 protective, 4 ppm, % diseased leaf area) [%]
CNC(=O)/C(=N/OC)c1cccc(C)c1CO/N=C(/c1cccc(C(F)(F)F)c1)C(C)C [compound 207]		40	11		83	5		
CCc1ccccc1/C(C)=N/OCc1c(C)cccc1/C(=N\OC)C(=O)OC [compound 175]		100	97		100	93		
CNC(=O)/C(=N/OC)c1cccc(C)c1CO/N=C(\C)c1ccccc1C(F)(F)F [compound 38]		37	4		47	1		
C#Cc1cc(/C(C)=N/OCc2c(C)cccc2/C(=N\OC)C(=O)OC)cc(C(F)(F)F)c1 [compound 143]		4	0		15	0		
CO/N=C(/C(=O)OC)c1cccc(C)c1CO/N=C(\C)c1cccc(C(C)(C)C)c1 [compound 96]		6	1		3	0		
CNC(=O)/C(=N/OC)c1cccc(C)c1CO/N=C(\SC)c1cccc(Cl)c1 [drawing 979, reference compound]				9			20	
CO/N=C(/C(=O)OC)c1cccc(C)c1CO/N=C(\C)c1ccc(OC(F)(F)F)cc1F [compound 269]		5	0		18	0		
CO/N=C(/C(=O)OC)c1ccccc1CO/N=C(\C)c1cccc(C#N)c1 [reference compound]	80			43				
CNC(=O)/C(=N/OC)c1cccc(C)c1CO/N=C(\C)c1ccccc1CC(C)C [compound 221]		100	63		100	100		
CNC(=O)/C(=N/OC)c1cccc(C)c1CO/N=C(\C)c1ccccc1C1CC1(F)F (stereo not drawn) [compound 288]		87	30		97	20		
CO/N=C(/C(=O)OC)c1cccc(C)c1CO/N=C(\C)c1cc(C)cc(Cl)c1 [compound 101]		70	37		60	17		
CO/N=C(/C(=O)OC)c1cccc(C)c1CO/N=C(\C)c1ccc(F)c(C(F)(F)F)c1 [compound 49]		60	18		60	7		
CO/N=C(/C(=O)OC)c1cccc(C)c1CO/N=C(/c1ccc(Cl)cc1)C(F)F [Ex. 20]		73	29		97	18		
CO/N=C(/C(=O)OC)c1ccccc1CO/N=C(\C)c1ccccc1F [reference compound]	83			77				
CO/N=C(/C(=O)OC)c1cccc(C)c1CO/N=C(\C)c1ccccc1C1CC1 [compound 217]		97	53		93	100		
CNC(=O)/C(=N/OC)c1cccc(C)c1CO/N=C(\CC(F)(F)F)c1cc(Cl)cc(Cl)c1 [compound 255]		97	83		100	87		
CNC(=O)/C(=N/OC)c1cccc(C)c1CO/N=C(\CC(C)C)c1cccc(C(F)(F)F)c1 [compound 235]		100	73		87	77		
CO/C=C(/C(=O)OC)c1cccc(C)c1CO/N=C(\C)c1c(Cl)cc(Cl)cc1OC(F)(F)F [compound 436]		70	15		73	27		
